{"source": "PubChem BioAssay (NCI)", "test_in_all_cases": "NCI tumour cell line growth inhibition, 48 h", "key": {"[1]": {"system": "SF-268 CNS"}, "[2]": {"system": "NCI-H460 lung"}, "[3]": {"system": "HOP-62 NSCLC"}, "[4]": {"system": "LOX IMVI melanoma"}, "[5]": {"system": "SNB-19 CNS"}, "[6]": {"system": "PC-3 prostate"}, "[7]": {"system": "K-562 leukemia"}, "[8]": {"system": "OVCAR-3 ovarian"}, "[9]": {"system": "BT-549 breast"}, "[10]": {"system": "SNB-75 CNS"}, "[11]": {"system": "NCI/ADR-RES ovarian"}, "[12]": {"system": "SF-295 CNS"}, "[13]": {"system": "SK-MEL-5 melanoma"}, "[14]": {"system": "HCT-15 colon"}, "[15]": {"system": "HCT-116 colon"}, "[16]": {"system": "OVCAR-8 ovarian"}, "[17]": {"system": "NCI-H522 lung"}, "[18]": {"system": "HL-60(TB) leukemia"}, "[19]": {"system": "RPMI-8226 leukemia"}, "[20]": {"system": "SK-MEL-2 melanoma"}, "[21]": {"system": "CAKI-1 renal"}, "[22]": {"system": "SW-620 colon"}, "[23]": {"system": "NCI-H226 lung"}, "[24]": {"system": "CCRF-CEM leukemia"}, "[25]": {"system": "KM12 colon"}, "[26]": {"system": "T-47D breast"}, "[27]": {"system": "M14 melanoma"}, "[28]": {"system": "HS 578T breast"}, "[29]": {"system": "HOP-92 NSCLC"}, "[30]": {"system": "OVCAR-5 ovarian"}, "[31]": {"system": "ACHN renal"}, "[32]": {"system": "NCI-H23 lung"}, "[33]": {"system": "SR leukemia"}, "[34]": {"system": "RXF 393 renal"}, "[35]": {"system": "DU-145 prostate"}, "[36]": {"system": "MOLT-4 leukemia"}, "[37]": {"system": "UACC-257 melanoma"}, "[38]": {"system": "MDA-MB-435"}, "[39]": {"system": "TK-10 renal"}, "[40]": {"system": "MDA-MB-231 breast"}, "[41]": {"system": "IGROV1 ovarian"}, "[42]": {"system": "HT29 colon"}, "[43]": {"system": "HCC-2998 colon"}, "[44]": {"system": "EKVX NSCLC"}, "[45]": {"system": "A549 NSCLC"}, "[46]": {"system": "MCF7 breast"}, "[47]": {"system": "SN12C renal"}, "[48]": {"system": "COLO 205 colon"}, "[49]": {"system": "SK-MEL-28 melanoma"}, "[50]": {"system": "786-0 renal"}, "[51]": {"system": "U251 CNS"}, "[52]": {"system": "MALME-3M melanoma"}, "[53]": {"system": "SF-539 CNS"}, "[54]": {"system": "UACC-62 melanoma"}, "[55]": {"system": "SK-OV-3 ovarian"}}, "note": "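Cells were grown in 96-well plates and exposed to each compound for 48 hours at five concentrations; endpoints were interpolated linearly between bracketing concentrations, or set to the highest concentration if not reached. Here, GI50 denotes the concentration required for 50% inhibition of growth. Definition used: TGI = concentration required for complete inhibition of growth.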"}
{"smiles": "Nc1nc(N)c2cc(S(=O)(=O)c3ccc4ccccc4c3)ccc2n1", "values": [{"measurement": "TGI", "setting": "[1]", "result": "> 58.9", "unit": "µM"}, {"measurement": "TGI", "setting": "[2]", "result": "> 100", "unit": "µM"}, {"measurement": "TGI", "setting": "[3]", "result": 30.3, "unit": "µM"}, {"measurement": "TGI", "setting": "[4]", "result": "> 100", "unit": "µM"}, {"measurement": "TGI", "setting": "[5]", "result": 63.5, "unit": "µM"}, {"measurement": "TGI", "setting": "[6]", "result": "> 100", "unit": "µM"}, {"measurement": "TGI", "setting": "[7]", "result": "> 100", "unit": "µM"}, {"measurement": "TGI", "setting": "[8]", "result": "> 100", "unit": "µM"}, {"measurement": "TGI", "setting": "[9]", "result": "> 100", "unit": "µM"}, {"measurement": "TGI", "setting": "[10]", "result": 12.3, "unit": "µM"}, {"measurement": "TGI", "setting": "[11]", "result": "> 100", "unit": "µM"}, {"measurement": "TGI", "setting": "[12]", "result": "> 56.3", "unit": "µM"}, {"measurement": "TGI", "setting": "[13]", "result": "> 65.7", "unit": "µM"}, {"measurement": "TGI", "setting": "[14]", "result": "> 100", "unit": "µM"}, {"measurement": "TGI", "setting": "[15]", "result": "> 100", "unit": "µM"}, {"measurement": "TGI", "setting": "[16]", "result": 49.6, "unit": "µM"}, {"measurement": "TGI", "setting": "[17]", "result": "> 93", "unit": "µM"}, {"measurement": "TGI", "setting": "[18]", "result": "> 100", "unit": "µM"}, {"measurement": "TGI", "setting": "[19]", "result": "> 100", "unit": "µM"}, {"measurement": "TGI", "setting": "[20]", "result": "> 77.8", "unit": "µM"}, {"measurement": "TGI", "setting": "[21]", "result": "> 100", "unit": "µM"}, {"measurement": "GI50", "setting": "[22]", "result": 0.611, "unit": "µM"}, {"measurement": "TGI", "setting": "[22]", "result": "> 100", "unit": "µM"}, {"measurement": "GI50", "setting": "[23]", "result": 10.8, "unit": "µM"}, {"measurement": "TGI", "setting": "[23]", "result": "> 100", "unit": "µM"}, {"measurement": "GI50", "setting": "[24]", "result": "> 100", "unit": "µM"}, {"measurement": "TGI", "setting": "[24]", "result": "> 100", "unit": "µM"}, {"measurement": "TGI", "setting": "[25]", "result": "> 100", "unit": "µM"}, {"measurement": "TGI", "setting": "[26]", "result": "> 29.6", "unit": "µM"}, {"measurement": "GI50", "setting": "[27]", "result": 2.23, "unit": "µM"}, {"measurement": "TGI", "setting": "[27]", "result": "> 100", "unit": "µM"}, {"measurement": "TGI", "setting": "[28]", "result": "> 73.8", "unit": "µM"}, {"measurement": "TGI", "setting": "[29]", "result": 34.8, "unit": "µM"}, {"measurement": "TGI", "setting": "[30]", "result": "> 100", "unit": "µM"}, {"measurement": "TGI", "setting": "[31]", "result": "> 100", "unit": "µM"}, {"measurement": "TGI", "setting": "[32]", "result": "> 100", "unit": "µM"}, {"measurement": "GI50", "setting": "[33]", "result": "> 100", "unit": "µM"}, {"measurement": "TGI", "setting": "[33]", "result": "> 100", "unit": "µM"}, {"measurement": "GI50", "setting": "[34]", "result": 3.81, "unit": "µM"}, {"measurement": "TGI", "setting": "[34]", "result": 48, "unit": "µM"}, {"measurement": "GI50", "setting": "[35]", "result": 7.78, "unit": "µM"}, {"measurement": "TGI", "setting": "[35]", "result": "> 100", "unit": "µM"}, {"measurement": "GI50", "setting": "[36]", "result": "> 100", "unit": "µM"}, {"measurement": "TGI", "setting": "[36]", "result": "> 100", "unit": "µM"}, {"measurement": "TGI", "setting": "[37]", "result": 2.67, "unit": "µM"}, {"measurement": "TGI", "setting": "[38]", "result": "> 100", "unit": "µM"}, {"measurement": "TGI", "setting": "[39]", "result": "> 81.2", "unit": "µM"}, {"measurement": "TGI", "setting": "[40]", "result": "> 31.6", "unit": "µM"}, {"measurement": "TGI", "setting": "[41]", "result": "> 100", "unit": "µM"}, {"measurement": "GI50", "setting": "[42]", "result": 2.34, "unit": "µM"}, {"measurement": "TGI", "setting": "[42]", "result": "> 100", "unit": "µM"}, {"measurement": "TGI", "setting": "[43]", "result": "> 100", "unit": "µM"}, {"measurement": "TGI", "setting": "[44]", "result": "> 100", "unit": "µM"}, {"measurement": "TGI", "setting": "[45]", "result": "> 100", "unit": "µM"}, {"measurement": "GI50", "setting": "[46]", "result": 5.17, "unit": "µM"}, {"measurement": "TGI", "setting": "[46]", "result": "> 100", "unit": "µM"}, {"measurement": "TGI", "setting": "[47]", "result": "> 100", "unit": "µM"}, {"measurement": "GI50", "setting": "[48]", "result": 6.37, "unit": "µM"}, {"measurement": "TGI", "setting": "[48]", "result": "> 100", "unit": "µM"}, {"measurement": "TGI", "setting": "[49]", "result": "> 100", "unit": "µM"}, {"measurement": "TGI", "setting": "[50]", "result": "> 100", "unit": "µM"}, {"measurement": "TGI", "setting": "[51]", "result": 23.6, "unit": "µM"}, {"measurement": "TGI", "setting": "[52]", "result": "> 100", "unit": "µM"}, {"measurement": "TGI", "setting": "[53]", "result": "> 74.7", "unit": "µM"}, {"measurement": "TGI", "setting": "[54]", "result": "> 100", "unit": "µM"}, {"measurement": "TGI", "setting": "[55]", "result": "> 81.8", "unit": "µM"}]}
